The record followed here is patent US8889712B2, “IAP antagonists” (Bristol-Myers Squibb Company, priority 2012, dated 2014).

SMILES strings stand for the structures.

Test [1] has as its target T1, XIAP BIR3 (Homo sapiens, UniProt P98170).
T1 construct: His-BIR3 (241-356, XIAP)
Put plainly: XIAP-BIR3/SMAC Homogeneous Time Resolved Fluorescence (HTRF) Assay. It is filed as binding. As to conditions: 1 nM N-His-BIR3 (241-356, XIAP), 5 nM fluorescein labeled SMAC peptide; HTRF signal; read-out: XIAP BIR3 IC50. In a few lines: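 Competition HTRF between XIAP-BIR3 and SMAC; reaction 60 min at room temperature, then anti-6×His-terbium Fab detection for a further 30 min.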
(In general: In TR-FRET formats the signal depends on donor and acceptor labels being close together.)

For test [2], the target named is T2, XIAP BIR2-3 (Homo sapiens, UniProt P98170, C202A/C213G).
T2 construct: His-BIR2-3 (125-356, C202A/C213G, XIAP)
Put plainly: XIAP-BIR2-3 dimeric SMAC Peptide Homogeneous Time Resolved Fluorescence (HTRF) Assay. It is filed as binding. The conditions noted are these: 0.5 nM N-His-BIR2-3 (125-356, C202A/C213G, XIAP), 20 nM fluorescein labeled dimeric SMAC peptide; HTRF signal; read-out: XIAP BIR2-3 IC50. The method, then:
B. […] Assays were performed in black, flat-bottom, 384-well plates. […] Compounds were dissolved at 3 mM in dimethylsulfoxide (DMSO) and evaluated at eleven serially diluted concentrations. IC50 and Ki values were derived by non-linear regression analysis.

T2 sequence (P98170 125-356 C202A/C213G): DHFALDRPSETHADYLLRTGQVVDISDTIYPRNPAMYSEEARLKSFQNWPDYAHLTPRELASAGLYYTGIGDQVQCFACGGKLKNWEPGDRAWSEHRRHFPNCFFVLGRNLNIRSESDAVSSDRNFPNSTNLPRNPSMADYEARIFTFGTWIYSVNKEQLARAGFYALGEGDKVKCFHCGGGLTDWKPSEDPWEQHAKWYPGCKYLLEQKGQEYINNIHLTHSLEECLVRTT
T1 sequence (P98170 241-356): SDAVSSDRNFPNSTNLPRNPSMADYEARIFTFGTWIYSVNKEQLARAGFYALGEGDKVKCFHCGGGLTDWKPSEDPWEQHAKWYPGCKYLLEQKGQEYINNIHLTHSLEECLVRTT

By IC50 is commonly meant the concentration needed to halve the response being measured. Consider `CN[C@@H](C)C(=O)N[C@@H](Cc1cc(F)cc(F)c1)C(=O)N1Cc2cc(C(=O)N[C@H]3C[C@@H](C(=O)N[C@@H]4CCCc5ccccc54)N(C(=O)[C@@H](NC(=O)[C@H](C)NC)C(C)(C)C)C3)ccc2C[C@H]1C(=O)N[C@@H]1CCCc2ccccc21` [Example 11, (S)-2-((S)-3-(3,5-Difluorophenyl)-2-((S)-2-(methylamino)propanamido)propanoyl)-N^7-((3S,5S)-1-((S)-3,3-dimethyl-2-((S)-2-(methylamino)propanamido)butanoyl)-5-(((R)-1,2,3,4-tetrahydronaphthalen-1-yl)carbamoyl)pyrrolidin-3-yl)-N^3-((R)-1,2,3,4-tetrahydronaphthalen-1-yl)-1,2,3,4-tetrahydroisoquinoline-3,7-dicarboxamide], for which the IC50 in test [1] stood at 25 nM; in test [2], 10 nM.
`CCN[C@@H](C)C(=O)N[C@H](C(=O)N1Cc2cc(C(=O)N[C@H]3C[C@@H](C(=O)N[C@@H]4CCCc5ccccc54)N(C(=O)[C@@H](NC(=O)[C@H](C)NC)C(C)(C)C)C3)ccc2C[C@H]1C(=O)N[C@@H]1CCCc2ccccc21)C(CC)CC` [Example 18, (S)-N^7-((3S,5S)-1-((S)-3,3-Dimethyl-2-((S)-2-(methylamino)propanamido)butanoyl)-5-(((R)-1,2,3,4-tetrahydronaphthalen-1-yl)carbamoyl)pyrrolidin-3-yl)-2-((S)-3-ethyl-2-((S)-2-(ethylamino)propanamido)pentanoyl)-N^3-((R)-1,2,3,4-tetrahydronaphthalen-1-yl)-1,2,3,4-tetrahydroisoquinoline-3,7-dicarboxamide]: the IC50 in test [1] was determined as 9 nM; in test [2], 4 nM.
On to `CN[C@@H](C)C(=O)N[C@H](C(=O)N1Cc2cc([C@H]3C[C@@H](C(=O)N[C@@H]4CCCc5ccccc54)N(C(=O)[C@@H](NC(=O)[C@H](C)NC)C(C)(C)C)C3)ccc2C[C@H]1C(=O)N[C@@H]1CCCc2ccccc21)C1CCOCC1` [Example 24, (S)-7-((3R,5S)-1-((S)-3,3-Dimethyl-2-((S)-2-(methylamino)propanamido)butanoyl)-5-(((R)-1,2,3,4-tetrahydronaphthalen-1-yl)carbamoyl)pyrrolidin-3-yl)-2-((S)-2-((S)-2-(methylamino)propanamido)-2-(tetrahydro-2H-pyran-4-yl)acetyl)-N—((R)-1,2,3,4-tetrahydronaphthalen-1-yl)-1,2,3,4-tetrahydroisoquinoline-3-carboxamide], for which the IC50 came out at 3 nM in test [1] and 1 nM in test [2].
In the same order, the values of `CN[C@@H](C)C(=O)N[C@H](C(=O)N1CC(c2ccc3c(c2)CN(C(=O)[C@@H](NC(=O)[C@H](C)NC)C(C)(C)C)[C@H](C(=O)NC2CCCc4ccccc42)C3)C[C@H]1C(=O)NC(Cc1ccccc1)C(=O)N(C)Cc1ccccc1)C(C)(C)C` (stereo in doubt) [Example 72, (S)-7-((3S,5S)-5-(((S)-1-(Benzyl(methyl)amino)-1-oxo-3-phenylpropan-2-yl)carbamoyl)-1-((S)-3,3-dimethyl-2-((S)-2-(methylamino)propanamido)butanoyl)pyrrolidin-3-yl)-2-((S)-3,3-dimethyl-2-((S)-2-(methylamino)propanamido)butanoyl)-N-((R)-1,2,3,4-tetrahydronaphthalen-1-yl)-1,2,3,4-tetrahydroisoquinoline-3-carboxamide] are 16.5 nM and 3.3 nM.
In the same order, the values of `CCN[C@@H](C)C(=O)N[C@H](C(=O)N1Cc2cc(C(=O)N[C@H]3C[C@@H](C(=O)NC4CCCc5ccccc54)N(C(=O)[C@@H](NC(=O)[C@H](C)NC)C(C)(C)C)C3)ccc2C[C@H]1C(=O)NC1CCCc2ccccc21)C(C)(C)C` (stereo partly drawn) [Example 2] are 9 nM and 6 nM.
The like results for `CCC(CC)[C@H](NC(=O)[C@H](C)NC)C(=O)N1C[C@@H](NC(=O)c2ccc3c(c2)CN(C(=O)[C@@H](NC(=O)[C@H](C)NC)C(C)(C)C)[C@H](C(=O)N[C@@H]2CCCc4ccccc42)C3)C[C@H]1C(=O)N[C@@H]1CCCc2ccccc21` [Example 17, (S)-2-((S)-3,3-Dimethyl-2-((S)-2-(methylamino)propanamido)butanoyl)-N^7-((3S,5S)-1-((S)-3-ethyl-2-((S)-2-(methylamino)propanamido)pentanoyl)-5-(((R)-1,2,3,4-tetrahydronaphthalen-1-yl)carbamoyl)pyrrolidin-3-yl)-N^3-((R)-1,2,3,4-tetrahydronaphthalen-1-yl)-1,2,3,4-tetrahydroisoquinoline-3,7-dicarboxamide] were, in that order, 2 nM and 2 nM.
Take `CN[C@@H](C)C(=O)N[C@H](C(=O)N1C[C@@H](NC(=O)c2ccc3c(c2)CN(C(=O)[C@@H](NC(=O)[C@@H](NC)C(C)C)C(C)(C)C)[C@H](C(=O)N[C@@H]2CCCc4ccccc42)C3)C[C@H]1C(=O)N[C@@H]1CCCc2ccccc21)C(C)(C)C` [Example 4, (S)-N^7-((3S,5S)-1-((S)-3,3-Dimethyl-2-((S)-2-(methylamino)propanamido)butanoyl)-5-(((R)-1,2,3,4-tetrahydronaphthalen-1-yl)carbamoyl)pyrrolidin-3-yl)-2-((S)-3,3-dimethyl-2-((S)-3-methyl-2-(methylamino)butanamido)butanoyl)-N^3-((R)-1,2,3,4-tetrahydronaphthalen-1-yl)-1,2,3,4-tetrahydroisoquinoline-3,7-dicarboxamide]: the concentration for half-maximal inhibition (IC50) in test [1] came out at 10 nM; in test [2], 11 nM.
The like results for `CN[C@@H](C)C(=O)N[C@H](C(=O)N1C[C@@H](c2ccc3c(c2)CN(C(=O)[C@@H](NC(=O)[C@H](C)NC)C(C)(C)SCC(=O)NCCO)[C@H](C(=O)N[C@@H]2CCCc4ccccc42)C3)C[C@H]1C(=O)N[C@@H]1CCCc2ccccc21)C(C)(C)C` [Example 29, (S)-7-((3R,5S)-1-((S)-3,3-Dimethyl-2-((S)-2-(methylamino)propanamido)butanoyl)-5-(((R)-1,2,3,4-tetrahydronaphthalen-1-yl)carbamoyl)pyrrolidin-3-yl)-2-((R)-3-((2-((2-hydroxyethyl)amino)-2-oxoethyl)thio)-3-methyl-2-((S)-2-(methylamino)propanamido)butanoyl)-N—((R)-1,2,3,4-tetrahydronaphthalen-1-yl)-1,2,3,4-tetrahydroisoquinoline-3-carboxamide] were, in that order, 11.7 nM and 0.8 nM.
For the compound `CN[C@@H](C)C(=O)N[C@H](C(=O)N1C[C@@H](NC(=O)c2ccc3c(c2)CN(C(=O)[C@@H](NC(=O)[C@@H](NC)C2CC2)C(C)(C)C)[C@H](C(=O)N[C@@H]2CCCc4ccccc42)C3)C[C@H]1C(=O)N[C@@H]1CCCc2ccccc21)C(C)(C)C` [Example 5, (S)-2-((S)-2-((S)-2-Cyclopropyl-2-(methylamino)acetamido)-3,3-dimethylbutanoyl)-N^7-((3S,5S)-1-((S)-3,3-dimethyl-2-((S)-2-(methylamino)propanamido)butanoyl)-5-(((R)-1,2,3,4-tetrahydronaphthalen-1-yl)carbamoyl)pyrrolidin-3-yl)-N^3-((R)-1,2,3,4-tetrahydronaphthalen-1-yl)-1,2,3,4-tetrahydroisoquinoline-3,7-dicarboxamide], the IC50 in test [1] was found to be 14 nM; in test [2], 13 nM.
